For assay [1], the target named is 3',5'-cyclic-AMP phosphodiesterase 4D (Homo sapiens) (UniProt Q08499). The assay can be described thus: PDE4D2 Eurofins SafetyScreen44 (BI). As to conditions: Compound concentration 10.0 uM.
Assay [2] addresses Potassium voltage-gated channel subfamily V member 1 (Rattus norvegicus) (UniProt P97557). The assay can be described thus: K+/VOLT/RA Eurofins SafetyScreen44 (BI). As to conditions: Compound concentration 10.0 uM.
Assay [3] addresses T1, Alpha-2A adrenergic receptor (Homo sapiens) (UniProt P08913).
T1 sequence (whole entry): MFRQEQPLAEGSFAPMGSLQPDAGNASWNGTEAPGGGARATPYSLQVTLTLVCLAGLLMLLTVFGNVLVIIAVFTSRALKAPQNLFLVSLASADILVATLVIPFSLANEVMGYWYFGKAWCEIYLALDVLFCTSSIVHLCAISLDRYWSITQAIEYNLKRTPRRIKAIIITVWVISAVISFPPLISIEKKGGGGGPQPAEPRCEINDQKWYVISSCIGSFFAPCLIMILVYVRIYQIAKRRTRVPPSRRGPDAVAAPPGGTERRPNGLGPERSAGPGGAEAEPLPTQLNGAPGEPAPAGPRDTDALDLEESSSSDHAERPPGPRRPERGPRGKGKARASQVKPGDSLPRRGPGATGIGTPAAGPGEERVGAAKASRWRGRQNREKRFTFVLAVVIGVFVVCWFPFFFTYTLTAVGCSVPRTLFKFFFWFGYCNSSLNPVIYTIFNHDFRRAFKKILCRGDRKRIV
The experiment in a line: ALPHA2A/H Eurofins SafetyScreen44 (BI).

Assay [4] concerns the target Cannabinoid receptor 1 (Homo sapiens) (UniProt P21554). The experiment in a line: CB1 Eurofins SafetyScreen44 (BI). The following applies: Compound concentration 10.0 uM.
The target of assay [5] is Glutamate receptor ionotropic, NMDA 2A (Rattus norvegicus) (UniProt Q00959). The experiment in a line: NMDAPHSI/R Eurofins SafetyScreen44 (BI). The following applies: Compound concentration 10.0 uM.
Sequence of Glutamate receptor ionotropic, NMDA 2A (Rattus norvegicus) (Q00959 23-1464 limits assumed): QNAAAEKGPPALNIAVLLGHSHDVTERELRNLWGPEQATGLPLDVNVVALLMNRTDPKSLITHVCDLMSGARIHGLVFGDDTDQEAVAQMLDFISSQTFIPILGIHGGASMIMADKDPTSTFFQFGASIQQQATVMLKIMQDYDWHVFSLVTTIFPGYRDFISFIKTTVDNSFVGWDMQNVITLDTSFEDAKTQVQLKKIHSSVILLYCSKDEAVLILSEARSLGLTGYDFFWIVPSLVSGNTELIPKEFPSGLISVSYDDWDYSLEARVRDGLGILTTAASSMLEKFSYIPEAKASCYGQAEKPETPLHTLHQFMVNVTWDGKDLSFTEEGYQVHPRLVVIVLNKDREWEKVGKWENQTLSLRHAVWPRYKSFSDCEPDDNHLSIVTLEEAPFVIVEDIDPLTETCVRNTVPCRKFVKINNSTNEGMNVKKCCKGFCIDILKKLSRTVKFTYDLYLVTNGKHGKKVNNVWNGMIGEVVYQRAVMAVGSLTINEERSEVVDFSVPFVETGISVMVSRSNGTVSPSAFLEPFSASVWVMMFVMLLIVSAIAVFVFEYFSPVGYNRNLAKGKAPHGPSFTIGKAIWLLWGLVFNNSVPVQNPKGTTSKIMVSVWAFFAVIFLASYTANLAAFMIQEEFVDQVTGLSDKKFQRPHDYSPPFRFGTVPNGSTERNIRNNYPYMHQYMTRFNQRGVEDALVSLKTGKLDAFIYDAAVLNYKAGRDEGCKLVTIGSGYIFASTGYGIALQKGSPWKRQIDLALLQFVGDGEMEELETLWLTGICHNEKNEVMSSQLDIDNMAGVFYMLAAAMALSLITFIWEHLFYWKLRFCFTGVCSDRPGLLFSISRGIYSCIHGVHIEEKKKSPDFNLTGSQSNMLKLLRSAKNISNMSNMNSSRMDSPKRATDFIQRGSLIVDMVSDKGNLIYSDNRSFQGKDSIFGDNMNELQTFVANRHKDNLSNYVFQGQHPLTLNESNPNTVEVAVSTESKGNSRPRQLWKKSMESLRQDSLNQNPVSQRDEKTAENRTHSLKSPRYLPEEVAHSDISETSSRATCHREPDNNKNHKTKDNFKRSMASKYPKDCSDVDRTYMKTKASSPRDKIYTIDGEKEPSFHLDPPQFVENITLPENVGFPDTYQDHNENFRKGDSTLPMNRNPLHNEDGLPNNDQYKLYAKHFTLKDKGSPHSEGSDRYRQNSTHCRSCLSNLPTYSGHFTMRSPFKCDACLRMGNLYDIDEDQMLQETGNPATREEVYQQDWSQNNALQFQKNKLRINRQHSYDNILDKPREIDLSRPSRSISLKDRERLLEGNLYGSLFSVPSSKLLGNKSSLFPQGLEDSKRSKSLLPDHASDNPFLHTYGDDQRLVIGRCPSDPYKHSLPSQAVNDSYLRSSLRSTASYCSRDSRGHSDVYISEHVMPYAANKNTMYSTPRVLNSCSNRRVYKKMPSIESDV
Assay [6] deals with T2, Alpha-2B adrenergic receptor (Homo sapiens) (UniProt P18089).
T2 sequence (whole entry): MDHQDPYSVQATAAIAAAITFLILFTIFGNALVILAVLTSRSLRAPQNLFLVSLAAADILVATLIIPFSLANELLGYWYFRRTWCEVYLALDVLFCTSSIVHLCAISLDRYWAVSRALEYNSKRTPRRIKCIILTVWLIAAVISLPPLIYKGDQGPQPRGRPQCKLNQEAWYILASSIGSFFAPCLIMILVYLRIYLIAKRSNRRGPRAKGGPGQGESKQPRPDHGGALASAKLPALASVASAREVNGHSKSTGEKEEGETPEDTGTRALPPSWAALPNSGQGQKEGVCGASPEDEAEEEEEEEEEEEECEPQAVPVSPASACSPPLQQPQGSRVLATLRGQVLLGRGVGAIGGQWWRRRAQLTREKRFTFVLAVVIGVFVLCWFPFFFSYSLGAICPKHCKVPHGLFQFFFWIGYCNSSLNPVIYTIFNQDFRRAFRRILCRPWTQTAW
The assay can be described thus: ALPHA2B/H Eurofins SafetyScreen44 (BI).

Assay [7] concerns the target D(4) dopamine receptor (Homo sapiens) (UniProt P21917). The assay can be described thus: D4.2/H Eurofins SafetyScreen44 (BI). As to conditions: Compound concentration 10.0 uM.
Assay [8] deals with Histamine H1 receptor (Homo sapiens) (UniProt P35367). The assay can be described thus: H1/H Eurofins SafetyScreen44 (BI).
Sequence of Histamine H1 receptor (Homo sapiens) (P35367 whole entry): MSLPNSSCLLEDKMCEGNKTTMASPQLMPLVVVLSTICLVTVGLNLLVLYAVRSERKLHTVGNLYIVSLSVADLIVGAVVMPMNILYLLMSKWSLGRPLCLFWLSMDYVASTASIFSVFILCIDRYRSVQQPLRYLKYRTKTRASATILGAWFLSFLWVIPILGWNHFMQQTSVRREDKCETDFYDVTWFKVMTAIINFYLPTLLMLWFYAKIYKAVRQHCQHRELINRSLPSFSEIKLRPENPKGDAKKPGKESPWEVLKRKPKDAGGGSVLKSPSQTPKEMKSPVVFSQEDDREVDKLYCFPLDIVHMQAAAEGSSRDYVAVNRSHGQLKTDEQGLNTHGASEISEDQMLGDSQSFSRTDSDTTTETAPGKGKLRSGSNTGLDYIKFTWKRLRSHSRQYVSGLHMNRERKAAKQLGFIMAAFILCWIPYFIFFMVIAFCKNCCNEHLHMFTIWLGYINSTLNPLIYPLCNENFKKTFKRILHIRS
The target in assay [9] is Gastrin/cholecystokinin type B receptor (Homo sapiens) (UniProt P32239). The experiment in a line: CCKB/H Eurofins SafetyScreen44 (BI). As to conditions: Compound concentration 10.0 uM.
Sequence of Gastrin/cholecystokinin type B receptor (Homo sapiens) (P32239 whole entry): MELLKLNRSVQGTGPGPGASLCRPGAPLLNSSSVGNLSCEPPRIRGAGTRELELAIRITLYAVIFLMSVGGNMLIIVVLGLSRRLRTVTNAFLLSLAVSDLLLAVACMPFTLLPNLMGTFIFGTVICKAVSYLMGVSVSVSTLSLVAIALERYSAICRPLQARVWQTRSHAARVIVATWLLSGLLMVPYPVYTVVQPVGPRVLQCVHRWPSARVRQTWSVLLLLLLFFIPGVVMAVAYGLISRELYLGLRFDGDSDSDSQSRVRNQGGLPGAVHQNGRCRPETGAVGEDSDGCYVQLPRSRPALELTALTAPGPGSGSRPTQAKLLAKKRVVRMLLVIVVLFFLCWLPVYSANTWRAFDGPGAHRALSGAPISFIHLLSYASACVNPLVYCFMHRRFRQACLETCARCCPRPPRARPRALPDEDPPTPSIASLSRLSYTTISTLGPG

Among the data in ChEMBL document CHEMBL5058643, “Data for DCP probe BI-2081” (2022) are residual activity values, retold here.

For orientation: residual activity means the signal under treatment as a percentage of the control signal.

Sequence of Potassium voltage-gated channel subfamily V member 1 (Rattus norvegicus) (P97557 whole entry): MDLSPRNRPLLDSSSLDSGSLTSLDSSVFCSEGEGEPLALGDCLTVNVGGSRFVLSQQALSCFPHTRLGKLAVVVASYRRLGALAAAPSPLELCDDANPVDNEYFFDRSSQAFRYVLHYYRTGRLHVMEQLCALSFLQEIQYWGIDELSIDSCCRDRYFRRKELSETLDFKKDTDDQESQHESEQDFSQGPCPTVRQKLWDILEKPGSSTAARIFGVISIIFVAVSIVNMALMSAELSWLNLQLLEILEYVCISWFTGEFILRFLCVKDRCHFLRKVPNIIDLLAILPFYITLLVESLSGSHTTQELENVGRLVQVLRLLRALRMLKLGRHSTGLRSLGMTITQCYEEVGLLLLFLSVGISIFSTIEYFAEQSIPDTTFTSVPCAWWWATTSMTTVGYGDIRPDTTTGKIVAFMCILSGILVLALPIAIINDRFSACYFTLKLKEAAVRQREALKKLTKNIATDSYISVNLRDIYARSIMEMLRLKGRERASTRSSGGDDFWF
Sequence of Cannabinoid receptor 1 (Homo sapiens) (P21554 whole entry): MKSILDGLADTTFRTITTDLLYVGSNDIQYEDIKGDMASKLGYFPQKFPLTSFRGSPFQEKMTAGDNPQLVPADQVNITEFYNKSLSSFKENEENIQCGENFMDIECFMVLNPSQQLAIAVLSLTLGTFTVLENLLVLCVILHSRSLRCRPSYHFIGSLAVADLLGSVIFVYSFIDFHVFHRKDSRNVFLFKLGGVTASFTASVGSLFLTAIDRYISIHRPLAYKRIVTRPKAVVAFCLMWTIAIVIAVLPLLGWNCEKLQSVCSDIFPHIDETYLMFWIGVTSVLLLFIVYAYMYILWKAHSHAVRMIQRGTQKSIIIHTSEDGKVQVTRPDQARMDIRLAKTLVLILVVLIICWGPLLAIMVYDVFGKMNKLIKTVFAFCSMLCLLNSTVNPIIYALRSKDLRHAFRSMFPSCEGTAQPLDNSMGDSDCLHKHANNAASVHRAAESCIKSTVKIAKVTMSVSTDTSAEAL
Sequence of 3',5'-cyclic-AMP phosphodiesterase 4D (Homo sapiens) (Q08499 whole entry): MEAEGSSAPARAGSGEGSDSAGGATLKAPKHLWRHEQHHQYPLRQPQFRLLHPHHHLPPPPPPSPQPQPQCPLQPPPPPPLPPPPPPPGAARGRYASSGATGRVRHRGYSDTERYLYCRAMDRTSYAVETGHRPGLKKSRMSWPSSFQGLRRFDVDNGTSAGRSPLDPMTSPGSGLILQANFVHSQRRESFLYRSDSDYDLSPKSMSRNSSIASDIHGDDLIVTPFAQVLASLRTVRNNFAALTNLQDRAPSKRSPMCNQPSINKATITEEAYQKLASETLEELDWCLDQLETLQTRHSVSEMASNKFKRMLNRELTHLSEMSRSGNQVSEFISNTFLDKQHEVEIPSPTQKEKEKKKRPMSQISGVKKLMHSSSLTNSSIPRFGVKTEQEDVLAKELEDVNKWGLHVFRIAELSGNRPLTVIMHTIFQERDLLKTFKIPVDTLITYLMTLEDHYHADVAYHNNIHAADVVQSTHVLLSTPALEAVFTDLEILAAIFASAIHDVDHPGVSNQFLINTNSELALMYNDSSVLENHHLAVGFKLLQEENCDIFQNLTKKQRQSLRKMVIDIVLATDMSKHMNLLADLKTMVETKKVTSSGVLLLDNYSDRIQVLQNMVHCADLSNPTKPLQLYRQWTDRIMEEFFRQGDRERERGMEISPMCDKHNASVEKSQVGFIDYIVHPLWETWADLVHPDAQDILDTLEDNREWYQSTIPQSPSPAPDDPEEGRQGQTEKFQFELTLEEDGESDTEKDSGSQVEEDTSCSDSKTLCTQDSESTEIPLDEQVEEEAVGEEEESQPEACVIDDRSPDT
Sequence of D(4) dopamine receptor (Homo sapiens) (P21917 whole entry): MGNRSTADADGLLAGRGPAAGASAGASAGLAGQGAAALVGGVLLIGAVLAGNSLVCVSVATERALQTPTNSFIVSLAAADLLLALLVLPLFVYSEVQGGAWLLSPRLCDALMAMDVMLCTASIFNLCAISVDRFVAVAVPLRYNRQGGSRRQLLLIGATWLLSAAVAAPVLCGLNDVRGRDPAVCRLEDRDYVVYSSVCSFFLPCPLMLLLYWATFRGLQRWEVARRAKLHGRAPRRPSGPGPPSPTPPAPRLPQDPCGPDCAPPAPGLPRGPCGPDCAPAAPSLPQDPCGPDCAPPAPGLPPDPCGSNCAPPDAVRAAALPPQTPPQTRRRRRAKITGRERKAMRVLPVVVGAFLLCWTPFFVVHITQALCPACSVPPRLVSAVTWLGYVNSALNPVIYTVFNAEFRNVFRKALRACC

Regarding `COCCCS(=O)(=O)c1cc(C)c(-c2ccc(F)c3c2CC[C@H]3Oc2ccc3c(c2)OC[C@H]3CC(=O)O)c(C)c1`, the values for the residual activity in assay [1] and in assay [2] were 103% and 108%, respectively.
`Cc1cc(OCCC(C)(C)O)cc(C)c1-c1ccc(F)c2c1CC[C@H]2Oc1ccc2c(c1)OC[C@H]2CC(=O)O`: the residual activity in [3] (Compound concentration 0.1 uM) was 93%; in assay [3] (Compound concentration 0.3 uM), 90%; in assay [3] (Compound concentration 1.0 uM) it was 83%; in [3] (Compound concentration 3.0 uM) it was 64%; in [3] (Compound concentration 10.0 uM), 5.5%; in assay [4], 100%. The residual activity was 103% in assay [5]; 97% in assay [6] (Compound concentration 0.3 uM); 98% in assay [6] (Compound concentration 1.0 uM); 103% in [6] (Compound concentration 3.0 uM); 90% in assay [6] (Compound concentration 10.0 uM); 75% in assay [6] (Compound concentration 30.0 uM). Also, the residual activity in assay [7] is 99%; in assay [8] (Compound concentration 0.3 uM) it was 90%; in assay [8] (Compound concentration 1.0 uM), 87%; in assay [8] (Compound concentration 3.0 uM), 68%; in [8] (Compound concentration 10.0 uM), 39%; in [8] (Compound concentration 30.0 uM), 17%. The residual activity in [9] is 96%.
